Results on one compound are retold here after US20060127996A1, “Method of extraction of isothiocyanates into oil from glucosinolate-containing plants and method of producing products with oil containing isothiocyanates extracted from glucosinolate-containing plants” (Johns Hopkins University, priority 2004, published 2006).

How the values of data set [1] were obtained:
The remainder of the hydrolyzed seed mash (100 g-0.79 g) was partitioned into a total of 400 ml EtOAc, by vigorous stirring and shaking. The mixture was then allowed to settle in a large graduate cylinder, the upper 100 ml was removed and evaporated under vacuum. […] This oil was then vortexed (1 g volume per 100 ml of water), then allowed to re-equilibrate into two phases, filtered, and the aqueous phase used for HPLC determination of sulforaphane content as described above.
The source holds these as a separate data set.

As to `C[S+]([O-])CCCCN=C=S` (centres unmarked) [sulforaphane, 4-methylsulfinylbutyl isothiocyanate], under “pure sulforaphane spiked into ethyl acetate/water”, the “partition in biphasic mixture of ethyl acetate and water” value was “partitions to the organic fraction”. Also, the “partition in biphasic mixture of hexane and water” value (pure sulforaphane spiked into hexane/water) is recorded as “partitions to the aqueous fraction”. In addition, the solubility in oil entry in data set [1] (broccoli seed oil) is listed as “oil soluble”. Further, the solubility in hexane entry in data set [1] (hexane) is “not soluble”. Moreover, the solubility in water result in data set [1] (water, back-extraction of the oil) is “reasonable solubility”.
